{"source": "patent US20040132027A1", "about": "“Screening method for discovering auxiliary agents promoting endocytosis” (priority 2000, published 2004)", "test_system": "yeast cells of the strain RPY10", "assay": "Transformation rate of yeast cells incubated with plasmid YEP24, with and without auxiliary agent", "type": "cell-based, Saccharomyces cerevisiae", "conditions": "5 μl chloroquine (100 mM solution) in 1 ml 1M saccharose pH 3.3, 10 μg YEP24, 24 h at 24° C., without chloroquine 0.8", "description": "A test method for the quantification of the uptake and the endocytosis transfer was made as follows. […] cells from the logarithmic growth phase of the strain RPY10 (Matα, leu2-3, ura3, his4 ade6 (4×10^7−7×10^7 cells per ml) (Piper, R. C., Whitters, E. A., Stevens, T. H. (1994) Yeast VpsS4p is a Sec 1p-like protein required for the consumption of vacuolar targeted, post-Golgi vesicles. Eur. J. Cell Biol. 65:305-318) were incubated for 24 h with 10 μg of the purified plasmid YEP24 (see: D. Bothstein et al., 1979, Gene 8:17-24), with and without auxiliary agent. The structure of the plasmid is shown in FIG. 1.\nPrior to the incubation, the cells were washed with the plasmid with at least twice the same volume of H2O and taken up in 1 ml 1M saccharose (pH 3.3, high concentrations of fermentable sugar), re-suspended with the pipette tip and brought in one 10 ml each falcon tube. […] Both were incubated for 5 min at room temperature.\nThen 10 μg DNA from the same DNA preparation were pipetted thereto (in 3-100 μl). The falcon tubes were firmly closed and agitated for 24 hours in a water bath or breeding room at 24° C. (the optimum transformation rate is at 24° C.-28° C). […]\nAfter the incubation, 200-500 cells per plate on YE plates (full medium) were plated out, and the colony-forming units (CFU) were determined. […] After 5 days at 24° C., the CFU were counted and tested by means of PCR. […]"}
{"smiles": "CCN(CC)CCCC(C)Nc1ccnc2cc(Cl)ccc12", "note": "(stereo not shown) [chloroquine]", "values": [{"measurement": "transformation rate", "value": "10.2 10^−8 transformants/CFU"}]}
